Experimental data published in PubChem BioAssay AID248 (DTP/NCI, 2004).
Where “and” joins values, the source holds several entries; their conditions need not be identical. Equal values may be shown once. Toxic doses and inconclusive results are not listed. No stated cut-off is given here; in the data, active means T/C of 150% or more; inactive means T/C below 125%.

Test system: L1210 leukemia ip in BDF1 mice, survival T/C
Test: NCI In Vivo Anticancer Drug Screen. Data for tumor model L1210 Leukemia (intraperitoneal) in B6D2F1 (BDF1) mice
Settings: endpoint: mean survival time, higher = longer survival
Summary of the method: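 Survival endpoint. Drug-treated group vs vehicle group, expressed as T divided by C. Tumor passaged by transplantation.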

[1] = dose: 100.0 mg/kg/injection, schedule: Q01DX009 (ip), vehicle: Klucel (hydroxypropylcellulose) (HPC)
[2] = dose: 100.0 mg/kg/injection, schedule: Q04DX003 (ip), vehicle: Klucel (hydroxypropylcellulose) (HPC)
[3] = dose: 200.0 mg/kg/injection, schedule: Q01DX009 (ip), vehicle: Klucel (hydroxypropylcellulose) (HPC)
[4] = dose: 200.0 mg/kg/injection, schedule: Q04DX003 (ip), vehicle: Klucel (hydroxypropylcellulose) (HPC)
[5] = dose: 400.0 mg/kg/injection, schedule: Q01DX009 (ip), vehicle: Klucel (hydroxypropylcellulose) (HPC)
[6] = dose: 400.0 mg/kg/injection, schedule: Q04DX003 (ip), vehicle: Klucel (hydroxypropylcellulose) (HPC)
[7] = dose: 50.0 mg/kg/injection, schedule: Q01DX009 (ip), vehicle: Klucel (hydroxypropylcellulose) (HPC)
[8] = dose: 50.0 mg/kg/injection, schedule: Q01DX001 (ip), vehicle: other
[9] = dose: 100.0 mg/kg/injection, schedule: Q01DX001 (ip), vehicle: other
[10] = dose: 200.0 mg/kg/injection, schedule: Q01DX001 (ip), vehicle: other
[11] = dose: 400.0 mg/kg/injection, schedule: Q01DX001 (ip), vehicle: other
[12] = dose: 100.0 mg/kg/injection, schedule: Q01DX001 (ip), vehicle: saline
[13] = dose: 200.0 mg/kg/injection, schedule: Q01DX001 (ip), vehicle: saline
[14] = dose: 400.0 mg/kg/injection, schedule: Q01DX001 (ip), vehicle: saline
[15] = dose: 100.0 mg/kg/injection, schedule: Q01DX001 (ip), vehicle: Klucel (hydroxypropylcellulose) (HPC)
[16] = dose: 200.0 mg/kg/injection, schedule: Q01DX001 (ip), vehicle: Klucel (hydroxypropylcellulose) (HPC)
[17] = dose: 400.0 mg/kg/injection, schedule: Q01DX001 (ip), vehicle: Klucel (hydroxypropylcellulose) (HPC)
[18] = dose: 100.0 mg/kg/injection, schedule: Q01DX009 (ip), vehicle: saline
[19] = dose: 100.0 mg/kg/injection, schedule: Q04DX003 (ip), vehicle: saline
[20] = dose: 200.0 mg/kg/injection, schedule: Q01DX009 (ip), vehicle: saline
[21] = dose: 200.0 mg/kg/injection, schedule: Q04DX003 (ip), vehicle: saline
[22] = dose: 400.0 mg/kg/injection, schedule: Q04DX003 (ip), vehicle: saline
[23] = dose: 100.0 mg/kg/injection, schedule: Q04DX002 (ip), vehicle: Klucel (hydroxypropylcellulose) (HPC)
[24] = dose: 200.0 mg/kg/injection, schedule: Q04DX002 (ip), vehicle: Klucel (hydroxypropylcellulose) (HPC)
[25] = dose: 400.0 mg/kg/injection, schedule: Q04DX002 (ip), vehicle: Klucel (hydroxypropylcellulose) (HPC)
[26] = dose: 400.0 mg/kg/injection, schedule: Q01DX009 (ip), vehicle: saline

Measured: T/C

Cc1cc(Cl)ccc1NS(=O)(=O)c1ccccc1
inactive: [1] 107 % of control | [2] 98 % of control | [3] 98 % of control | [4] 103 % of control | [5] 96 % of control | [6] 97 % of control

CC(C)(Br)C(=O)c1ccco1
inactive: dose: 100.0 mg/kg/injection, schedule: Q01DX009 (ip), vehicle: saline with Tween-80 95 % of control

Cc1cc(OC(=O)/C=C/C(=O)Oc2cc(C)c(Cl)c(C)c2)cc(C)c1Cl
inactive: [1] 97 % of control | [2] 105 % of control | [3] 95 % of control | [4] 104 % of control | [5] 97 % of control | [6] 104 % of control

CS(=O)(=O)OCCN(CCOS(C)(=O)=O)c1ccc(C=Nc2ccc(-c3cnc(-c4ccc(Cl)cc4)s3)cc2)c(Cl)c1
inactive: dose: 25.0 mg/kg/injection, schedule: Q01DX009 (ip), vehicle: Klucel (hydroxypropylcellulose) (HPC) 98 % of control | [7] 107 % of control | [1] 109 % of control

Cc1ccc(NC(=O)Nc2ccc(C)c(NC(=O)Nc3ccc(C)cc3C)c2)c(C)c1
inactive: dose: 100.0 mg/kg/injection, schedule: Q04DX003 (ip), vehicle: saline with Tween-80 90 % of control | dose: 200.0 mg/kg/injection, schedule: Q01DX009 (ip), vehicle: saline with Tween-80 103 % of control | dose: 200.0 mg/kg/injection, schedule: Q04DX003 (ip), vehicle: saline with Tween-80 95 % of control | dose: 400.0 mg/kg/injection, schedule: Q01DX009 (ip), vehicle: saline with Tween-80 109 % of control | dose: 400.0 mg/kg/injection, schedule: Q04DX003 (ip), vehicle: saline with Tween-80 93 % of control

CCCCCCCCOc1nccc(N)n1
inactive: dose: 75.0 mg/kg/injection, schedule: Q01DX001 (ip), vehicle: saline with Tween-80 105 % of control

CN1CCC(OC(=O)C(O)C2CCCCC2)CC1 (centres undefined)
inactive: [2] 104 % of control | [4] 103 % of control

CCOC(=O)/C=N/Nc1ccc([N+](=O)[O-])cc1[N+](=O)[O-]
inactive: [8] 95 % of control | [9] 90 % of control | [10] 95 % of control | [11] 92 % of control

COc1cc(C[N+]23CC[N+](Cc4cc(OC)c(OC)c(OC)c4)(CC2)C3)cc(OC)c1OC
inactive: [12] 101 % of control | [13] 98 % of control | [14] 95 % of control

N#CC(C#N)=Cc1ccc(Cl)cc1
inactive: [8] 105 % of control | [9] 102 % of control | [10] 113 % of control

CCN(C(=S)Nc1cccc2ccccc12)c1ccccc1
inactive: [1] 100 % of control | [3] 96 % of control | [5] 92 % of control

CCCC#CC(O)(C(=O)OC)c1ccccc1 (centres undefined)
inactive: [9] 102 % of control | [10] 103 % of control | [11] 105 % of control

Nc1nc2ncc(CN(C(=O)C(F)(F)F)c3ccc(C(=O)NC(CCC(=O)O)C(=O)O)cc3)nc2c(=O)[nH]1 (centres undefined)
inactive: [15] 100 % of control | [16] 107 % of control | [17] 111 % of control

CCCCCCCc1cc(=O)n(-c2ccc([N+](=O)[O-])cc2)n1C
inactive: [2] 92 % of control | [4] 91 % of control | [6] 94 % of control

O=C(Nc1ccccn1)Nc1ccccn1
inactive: [1] 104 % of control | [2] 98 % of control | [3] 104 % of control | [4] 87 % of control | [6] 106 % of control

CCC(C)C(C#N)(CCN(C)C)Cc1cccc2ccccc12 (centres undefined)
inactive: dose: 25.0 mg/kg/injection, schedule: Q04DX003 (ip), vehicle: Klucel (hydroxypropylcellulose) (HPC) 97 % of control | dose: 50.0 mg/kg/injection, schedule: Q04DX003 (ip), vehicle: Klucel (hydroxypropylcellulose) (HPC) 92 % of control | [1] 100 % of control | [2] 103 % of control

Cc1cccc(NC(N)=O)c1
inactive: dose: 50.0 mg/kg/injection, schedule: Q01DX009 (ip), vehicle: saline 96 % of control | [18] 97 % of control | [19] 95 % of control | [20] 94 % of control | [21] 97 % of control | [22] 94 % of control

C#CC1CC2C3CCC4=CC(=O)CCC4(C)C3CCC2(C)C1N(C)C (centres undefined)
inactive: dose: 50.0 mg/kg/injection, schedule: Q01DX001 (sc), vehicle: steriod suspending solution 98 % of control | dose: 100.0 mg/kg/injection, schedule: Q01DX001 (sc), vehicle: steriod suspending solution 104 % of control

Cc1ccc(C(=O)C2OC2c2ccccc2)cc1 (centres undefined)
inactive: [15] 97 % of control | [16] 95 % of control | [17] 89 % of control

COc1cccc(NC(=O)Nc2ccccc2OC)c1
inactive: [1] 106 % of control | [2] 100 % of control | [3] 108 % of control | [4] 97 % of control | [5] 103 % of control | [6] 100 % of control

CC(=O)Nc1ccc2c(ccc3ccc4ccccc4c32)c1
inactive: [23] 102 % of control | [24] 105 % of control | [25] 105 % of control

CCCCCCC/C=N/N=C/CCCCCCC
inactive: dose: 100.0 mg/kg/injection, schedule: Q01DX009 (ip), vehicle: other 97 % of control | dose: 100.0 mg/kg/injection, schedule: Q04DX003 (ip), vehicle: other 97 % of control | dose: 200.0 mg/kg/injection, schedule: Q01DX009 (ip), vehicle: other 100 % of control | dose: 200.0 mg/kg/injection, schedule: Q04DX003 (ip), vehicle: other 97 % of control | dose: 400.0 mg/kg/injection, schedule: Q01DX009 (ip), vehicle: other 112 % of control | dose: 400.0 mg/kg/injection, schedule: Q04DX003 (ip), vehicle: other 109 % of control

CCCCC(C#N)(C(=O)OCC)C(C)(C)C (centres undefined)
inactive: [18] 105 % of control | [19] 96 % of control | [20] 92 % of control | [21] 97 % of control | [26] 101 % of control | [22] 96 % of control

FC(F)(F)c1ccccc1NC(=S)N(Cc1ccccc1)Cc1ccccc1
inactive: [1] 92 % of control | [23] 110 % of control | [3] 103 % of control | [24] 92 % of control | [5] 96 % of control | [25] 100 % of control

Cn1cc(/C=C\[N+](=O)[O-])c2ccccc21
inactive: [12] 98 % of control | [13] 98 % of control | [14] 98 % of control

Cc1ccc2c(c1)C(c1ccccc1)(c1ccccc1)OC2
inactive: dose: 50.0 mg/kg/injection, schedule: Q01DX001 (ip), vehicle: carboxymethylcellulose (CMC) 101 % of control | dose: 100.0 mg/kg/injection, schedule: Q01DX001 (ip), vehicle: carboxymethylcellulose (CMC) 95 % of control | dose: 200.0 mg/kg/injection, schedule: Q01DX001 (ip), vehicle: carboxymethylcellulose (CMC) 89 % of control | dose: 400.0 mg/kg/injection, schedule: Q01DX001 (ip), vehicle: carboxymethylcellulose (CMC) 101 % of control

CCCCCCCCc1ccccc1
inactive: dose: 100.0 mg/kg/injection, schedule: Q04DX002 (ip), vehicle: saline 99 % of control | dose: 200.0 mg/kg/injection, schedule: Q04DX002 (ip), vehicle: saline 96 % of control | dose: 400.0 mg/kg/injection, schedule: Q04DX002 (ip), vehicle: saline 99 % of control

CC(=O)Nc1cccc(Br)c1
inactive: [7] 101 % of control | [1] 106 % of control and 90 % of control | [3] 95 % of control and 102 % of control

O=C(CN1C(=O)C(=O)O/C1=C/c1ccccc1)OCc1ccccc1
inactive: [1] 105 % of control | [3] 103 % of control

Nc1nc(N)c2nc(CNc3cccc4ccccc34)cnc2n1
inactive: dose: 10.0 mg/kg/injection, schedule: Q01DX009 (ip), vehicle: Klucel (hydroxypropylcellulose) (HPC) 102 % of control | dose: 20.0 mg/kg/injection, schedule: Q01DX009 (ip), vehicle: Klucel (hydroxypropylcellulose) (HPC) 102 % of control | dose: 40.0 mg/kg/injection, schedule: Q01DX009 (ip), vehicle: Klucel (hydroxypropylcellulose) (HPC) 100 % of control

CC(=O)c1c[nH]c2ccccc12
inactive: [18] 101 % of control | [20] 108 % of control | [26] 95 % of control
